Consider three compounds from ChEMBL document CHEMBL1909046, “DrugMatrix in vitro pharmacology data”.

Chain of Prostaglandin G/H synthase 1 (P23219 whole entry): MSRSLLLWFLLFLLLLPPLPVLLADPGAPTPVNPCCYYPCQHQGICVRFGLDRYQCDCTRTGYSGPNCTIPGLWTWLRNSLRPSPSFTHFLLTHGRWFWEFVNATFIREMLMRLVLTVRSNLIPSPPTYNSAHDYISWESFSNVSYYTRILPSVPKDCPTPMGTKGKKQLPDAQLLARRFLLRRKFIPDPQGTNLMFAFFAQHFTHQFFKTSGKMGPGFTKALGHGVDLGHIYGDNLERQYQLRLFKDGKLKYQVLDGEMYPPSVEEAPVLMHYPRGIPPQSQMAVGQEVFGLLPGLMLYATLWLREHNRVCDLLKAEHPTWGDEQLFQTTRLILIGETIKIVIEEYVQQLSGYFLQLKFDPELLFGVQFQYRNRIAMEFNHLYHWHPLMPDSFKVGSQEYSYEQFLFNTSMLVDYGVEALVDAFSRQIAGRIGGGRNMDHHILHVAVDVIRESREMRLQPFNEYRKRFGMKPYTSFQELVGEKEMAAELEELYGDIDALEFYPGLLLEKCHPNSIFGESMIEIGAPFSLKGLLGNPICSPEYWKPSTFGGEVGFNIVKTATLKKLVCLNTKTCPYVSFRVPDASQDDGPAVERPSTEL
Chain of Platelet-activating factor receptor (P25105 whole entry): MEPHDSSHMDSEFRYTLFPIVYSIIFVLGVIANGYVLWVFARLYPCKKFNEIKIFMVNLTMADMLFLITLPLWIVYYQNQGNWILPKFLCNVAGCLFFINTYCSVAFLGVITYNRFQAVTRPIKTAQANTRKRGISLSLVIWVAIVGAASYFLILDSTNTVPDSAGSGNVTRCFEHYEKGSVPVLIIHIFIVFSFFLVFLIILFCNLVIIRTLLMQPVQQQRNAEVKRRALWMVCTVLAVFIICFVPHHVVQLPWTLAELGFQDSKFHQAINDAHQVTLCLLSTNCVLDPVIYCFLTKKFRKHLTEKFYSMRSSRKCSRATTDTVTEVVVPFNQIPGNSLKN

The first test has as its target T1, Alpha-1D adrenergic receptor (Homo sapiens, UniProt P25100). Note: in other assays of this panel Not Active means under 50% inhibition at 10 µM.
T1 sequence (P25100 whole entry): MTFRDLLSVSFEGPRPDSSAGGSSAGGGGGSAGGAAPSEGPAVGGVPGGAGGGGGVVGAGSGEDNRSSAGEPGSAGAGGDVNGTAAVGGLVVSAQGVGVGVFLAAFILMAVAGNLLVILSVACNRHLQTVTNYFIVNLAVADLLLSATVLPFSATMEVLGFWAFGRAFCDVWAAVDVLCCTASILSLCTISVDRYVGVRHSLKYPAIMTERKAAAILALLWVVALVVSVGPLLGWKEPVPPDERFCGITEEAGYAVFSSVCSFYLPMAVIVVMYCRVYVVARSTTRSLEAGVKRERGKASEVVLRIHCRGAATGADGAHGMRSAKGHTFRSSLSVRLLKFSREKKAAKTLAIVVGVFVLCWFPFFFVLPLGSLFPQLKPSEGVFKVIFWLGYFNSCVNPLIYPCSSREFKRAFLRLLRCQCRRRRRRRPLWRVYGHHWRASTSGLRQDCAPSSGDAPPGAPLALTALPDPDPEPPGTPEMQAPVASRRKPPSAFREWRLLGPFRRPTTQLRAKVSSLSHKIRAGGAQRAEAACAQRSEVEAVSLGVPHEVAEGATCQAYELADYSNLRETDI
Test: not given
To be noted: hek293. It counts as cell membranes, HEK293, Membrane.
For `C=C1C(=O)O[C@@H]2C3O[C@]3(C)CC/C=C(\C)CC[C@@H]12` (stereo not given in full), the IC50 entry is recorded as “Not Active”.
In the case of `CCOC(=O)c1ccc(N)cc1` [BENZOCAINE], the IC50 result is “Not Active”.
Turning to OXALIPLATIN, the IC50 entry is “Not Active” and the Ki entry was “Not Active”.

System in another test: not listed separately
Kind of test: DRUGMATRIX: Calcium Channel Type L, Phenylalkylamine radioligand binding (ligand: [3H] (-)-Desmethoxyverapamil (D-888)). It counts as cell membranes, Rattus norvegicus, Wistar, Brain, Membrane. To be noted: Not Active = under 50% inhibition at 10 µM.
Take `C=C1C(=O)O[C@@H]2C3O[C@]3(C)CC/C=C(\C)CC[C@@H]12` (stereo not given in full): the IC50 entry is recorded as “Not Active” and the Ki entry was “Not Active”.
As to `CCOC(=O)c1ccc(N)cc1` [BENZOCAINE], the IC50 entry is recorded as “Not Active” and the Ki result is listed as “Not Active”.
On to OXALIPLATIN, for which the IC50 result is “Not Active” and the Ki entry is “Not Active”.

A further test concerns the target Prostaglandin G/H synthase 1 (Homo sapiens, UniProt P23219). Kind of test: biochemical. Format: tissue-based, Platelet. Particulars: platelet.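 Note: inhibition of COX-1 enzyme activity, with arachidonic acid supplied as substrate; in other assays of this panel Not Active means under 50% inhibition at 10 µM.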
With `C=C1C(=O)O[C@@H]2C3O[C@]3(C)CC/C=C(\C)CC[C@@H]12` (stereo not given in full), the IC50 entry was “Not Active”.
Same read-out and setting: the result for `CCOC(=O)c1ccc(N)cc1` [BENZOCAINE] reads “Not Active”.
OXALIPLATIN: the IC50 entry is “Not Active” and the Ki result is given as “Not Active”.

For another test, the target named is D(3) dopamine receptor (Homo sapiens, UniProt P35462). Kind of test: DRUGMATRIX: Dopamine D3 radioligand binding (ligand: [3H] Spiperone). Format: cell membranes, CHO, Membrane. Particulars: cho.
Chain of D(3) dopamine receptor (P35462 whole entry): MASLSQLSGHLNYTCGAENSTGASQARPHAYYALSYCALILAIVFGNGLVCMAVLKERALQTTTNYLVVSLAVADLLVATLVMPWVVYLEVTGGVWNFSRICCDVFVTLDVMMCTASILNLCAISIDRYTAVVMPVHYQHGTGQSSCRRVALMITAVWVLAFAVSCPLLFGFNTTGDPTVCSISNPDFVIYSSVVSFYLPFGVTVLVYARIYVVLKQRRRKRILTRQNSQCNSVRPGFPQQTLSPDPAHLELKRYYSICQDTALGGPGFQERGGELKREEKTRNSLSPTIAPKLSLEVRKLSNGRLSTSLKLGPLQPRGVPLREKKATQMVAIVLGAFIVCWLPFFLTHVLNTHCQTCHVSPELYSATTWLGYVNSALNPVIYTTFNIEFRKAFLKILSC
Regarding `C=C1C(=O)O[C@@H]2C3O[C@]3(C)CC/C=C(\C)CC[C@@H]12` (stereo not given in full), the IC50 entry is listed as “Not Active”.
Regarding `CCOC(=O)c1ccc(N)cc1` [BENZOCAINE], the IC50 entry is given as “Not Active”.
In the case of OXALIPLATIN, the IC50 result is “Not Active” and the Ki result is “Not Active”.

System in another test: not listed separately
Kind of test: DRUGMATRIX: Glutamate, NMDA, Agonism radioligand binding (ligand: [3H] CGP-39653). It counts as cell membranes, Rattus norvegicus, Wistar, Cerebral cortex, Membrane. To be noted: Not Active = under 50% inhibition at 10 µM.
As to `C=C1C(=O)O[C@@H]2C3O[C@]3(C)CC/C=C(\C)CC[C@@H]12` (stereo not given in full), the IC50 entry was “Not Active” and the Ki result was “Not Active”.
Regarding `CCOC(=O)c1ccc(N)cc1` [BENZOCAINE], the IC50 entry is listed as “Not Active” and the Ki result is recorded as “Not Active”.
On to OXALIPLATIN, for which the IC50 result was “Not Active” and the Ki entry is “Not Active”.

System in the next test: not listed separately
Kind of test: DRUGMATRIX: Glutamate, NMDA, Phencyclidine radioligand binding (ligand: [3H] TCP). Format: cell membranes, Rattus norvegicus, Wistar, Cerebral cortex, Membrane. To be noted: Not Active = under 50% inhibition at 10 µM.
With `C=C1C(=O)O[C@@H]2C3O[C@]3(C)CC/C=C(\C)CC[C@@H]12` (stereo not given in full), the IC50 result is on record as “Not Active” and the Ki entry is listed as “Not Active”.
For `CCOC(=O)c1ccc(N)cc1` [BENZOCAINE], the IC50 entry was “Not Active” and the Ki entry was “Not Active”.
As for OXALIPLATIN, the IC50 entry is recorded as “Not Active” and the Ki entry is reported as “Not Active”.

A further test addresses T2, 3-hydroxy-3-methylglutaryl-coenzyme A reductase (Homo sapiens, UniProt P04035).
T2 sequence (P04035 whole entry): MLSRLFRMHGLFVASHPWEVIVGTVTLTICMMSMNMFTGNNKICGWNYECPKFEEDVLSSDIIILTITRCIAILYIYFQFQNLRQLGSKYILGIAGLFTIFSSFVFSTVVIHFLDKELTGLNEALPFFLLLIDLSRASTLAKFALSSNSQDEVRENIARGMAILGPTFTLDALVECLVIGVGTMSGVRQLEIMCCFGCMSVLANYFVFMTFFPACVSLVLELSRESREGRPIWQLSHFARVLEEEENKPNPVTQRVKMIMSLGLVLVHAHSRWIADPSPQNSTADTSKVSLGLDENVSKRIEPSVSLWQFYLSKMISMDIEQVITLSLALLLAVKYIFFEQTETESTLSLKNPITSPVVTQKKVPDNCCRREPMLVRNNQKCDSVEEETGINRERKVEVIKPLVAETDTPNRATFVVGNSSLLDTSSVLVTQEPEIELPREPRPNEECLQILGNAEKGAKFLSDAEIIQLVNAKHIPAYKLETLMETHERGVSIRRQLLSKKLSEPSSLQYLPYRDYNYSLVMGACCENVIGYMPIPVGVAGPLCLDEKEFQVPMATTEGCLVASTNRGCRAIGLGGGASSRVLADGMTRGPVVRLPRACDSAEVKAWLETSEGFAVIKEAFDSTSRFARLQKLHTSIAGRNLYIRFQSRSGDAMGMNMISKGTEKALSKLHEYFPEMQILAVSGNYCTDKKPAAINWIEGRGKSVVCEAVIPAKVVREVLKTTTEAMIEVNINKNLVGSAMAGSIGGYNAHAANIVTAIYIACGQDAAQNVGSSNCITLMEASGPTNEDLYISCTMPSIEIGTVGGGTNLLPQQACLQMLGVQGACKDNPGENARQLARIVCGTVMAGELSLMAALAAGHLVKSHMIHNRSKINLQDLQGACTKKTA
Test: not given
Set-up: species or system Escherichia coli.
Conditions: not given
As to `C=C1C(=O)O[C@@H]2C3O[C@]3(C)CC/C=C(\C)CC[C@@H]12` (stereo not given in full), the IC50 entry is “Not Active”.
For `CCOC(=O)c1ccc(N)cc1` [BENZOCAINE], the IC50 result was “Not Active”.
For the compound OXALIPLATIN, the IC50 result was “Not Active” and the Ki result is reported as “Not Active”.

The next test deals with Melanocortin receptor 3 (Homo sapiens, UniProt P41968).
Chain of Melanocortin receptor 3 (P41968 whole entry): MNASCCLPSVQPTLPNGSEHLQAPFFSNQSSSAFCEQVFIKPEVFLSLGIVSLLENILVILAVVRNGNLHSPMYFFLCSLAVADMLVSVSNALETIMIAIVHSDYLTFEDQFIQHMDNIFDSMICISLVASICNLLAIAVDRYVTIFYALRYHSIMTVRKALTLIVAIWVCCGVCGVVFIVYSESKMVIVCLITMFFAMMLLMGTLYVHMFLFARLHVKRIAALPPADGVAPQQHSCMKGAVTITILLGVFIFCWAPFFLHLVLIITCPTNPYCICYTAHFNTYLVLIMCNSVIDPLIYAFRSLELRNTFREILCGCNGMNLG
Test: not given
It counts as cell membranes, Membrane. To be noted: hek293.
`C=C1C(=O)O[C@@H]2C3O[C@]3(C)CC/C=C(\C)CC[C@@H]12` (stereo not given in full): the IC50 result is on record as “Not Active”.
For `CCOC(=O)c1ccc(N)cc1` [BENZOCAINE], the IC50 result was “Not Active”.
Regarding OXALIPLATIN, the IC50 result is “Not Active” and the Ki entry is “Not Active”.

System in the next test: not listed separately
Kind of test: DRUGMATRIX: Phosphodiesterase PDE4 enzyme inhibition (substrate: [3H]cAMP + cAMP). To be noted: u-937; Not Active = under 50% inhibition at 10 µM.
As to `C=C1C(=O)O[C@@H]2C3O[C@]3(C)CC/C=C(\C)CC[C@@H]12` (stereo not given in full), the IC50 entry was “Not Active” and the Ki result is given as “Not Active”.
Consider `CCOC(=O)c1ccc(N)cc1` [BENZOCAINE], for which the IC50 result is reported as “Not Active” and the Ki entry was “Not Active”.
As to OXALIPLATIN, the IC50 result is “Not Active” and the Ki entry is on record as “Not Active”.

Another test has as its target Platelet-activating factor receptor (Homo sapiens, UniProt P25105). Kind of test: biochemical. It counts as tissue-based. To be noted: platelet. Note: in other assays of this panel Not Active means under 50% inhibition at 10 µM.
Turning to `C=C1C(=O)O[C@@H]2C3O[C@]3(C)CC/C=C(\C)CC[C@@H]12` (stereo not given in full), the IC50 result is listed as “Not Active”.
`CCOC(=O)c1ccc(N)cc1` [BENZOCAINE]: the IC50 result is “Not Active”.
With OXALIPLATIN, the IC50 result is listed as “Not Active” and the Ki entry was “Not Active”.

A further test has as its target T3, Interstitial collagenase (Homo sapiens, UniProt P03956).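 Note: MMP-1 enzyme inhibition assay using a peptide substrate; in other assays of this panel Not Active means under 50% inhibition at 10 µM.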
T3 sequence (P03956 whole entry): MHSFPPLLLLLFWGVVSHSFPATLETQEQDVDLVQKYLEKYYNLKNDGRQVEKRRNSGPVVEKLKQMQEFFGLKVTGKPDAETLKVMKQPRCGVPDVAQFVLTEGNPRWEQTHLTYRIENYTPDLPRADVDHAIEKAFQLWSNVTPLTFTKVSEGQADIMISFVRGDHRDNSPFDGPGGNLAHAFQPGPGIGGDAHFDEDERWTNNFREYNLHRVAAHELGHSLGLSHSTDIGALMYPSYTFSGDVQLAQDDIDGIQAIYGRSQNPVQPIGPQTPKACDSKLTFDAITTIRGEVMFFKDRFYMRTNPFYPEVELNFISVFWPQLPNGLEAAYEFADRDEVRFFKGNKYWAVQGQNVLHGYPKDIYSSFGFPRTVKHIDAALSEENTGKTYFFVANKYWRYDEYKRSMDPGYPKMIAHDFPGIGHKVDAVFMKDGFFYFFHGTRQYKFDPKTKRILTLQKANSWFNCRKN
Test: not given
Format: tissue-based, Rheumatoid synovial fibroblasts.
Conditions: not given
In the case of `C=C1C(=O)O[C@@H]2C3O[C@]3(C)CC/C=C(\C)CC[C@@H]12` (stereo not given in full), the IC50 entry is given as “Not Active”.
Take `CCOC(=O)c1ccc(N)cc1` [BENZOCAINE]: the IC50 entry is “Not Active”.
As to OXALIPLATIN, the IC50 entry is “Not Active” and the Ki entry is “Not Active”.

The target in a further test is Mitogen-activated protein kinase 1 (Homo sapiens, UniProt P28482). Kind of test: DRUGMATRIX: Protein Serine/Threonine Kinase, ERK2 enzyme inhibition (substrate: Myelin Basic Protein). Set-up: species or system Escherichia coli. Particulars: Not Active = under 50% inhibition at 10 µM.
Chain of Mitogen-activated protein kinase 1 (P28482 whole entry): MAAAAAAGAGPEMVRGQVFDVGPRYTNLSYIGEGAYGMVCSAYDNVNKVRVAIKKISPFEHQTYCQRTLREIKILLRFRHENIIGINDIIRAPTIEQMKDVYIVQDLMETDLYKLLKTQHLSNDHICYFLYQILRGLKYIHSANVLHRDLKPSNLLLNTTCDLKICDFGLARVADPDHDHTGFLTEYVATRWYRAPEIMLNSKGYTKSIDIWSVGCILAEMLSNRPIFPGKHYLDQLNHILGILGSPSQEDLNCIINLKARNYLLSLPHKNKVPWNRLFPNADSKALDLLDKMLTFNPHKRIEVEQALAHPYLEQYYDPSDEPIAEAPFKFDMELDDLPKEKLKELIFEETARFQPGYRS
Regarding `C=C1C(=O)O[C@@H]2C3O[C@]3(C)CC/C=C(\C)CC[C@@H]12` (stereo not given in full), the IC50 entry is on record as “Not Active”.
`CCOC(=O)c1ccc(N)cc1` [BENZOCAINE]: the IC50 entry is listed as “Not Active”.
Take OXALIPLATIN: the IC50 result was “Not Active” and the Ki result is “Not Active”.

The target of a further test is T4, Adenosine receptor A1 (Homo sapiens, UniProt P30542).
T4 sequence (P30542 whole entry): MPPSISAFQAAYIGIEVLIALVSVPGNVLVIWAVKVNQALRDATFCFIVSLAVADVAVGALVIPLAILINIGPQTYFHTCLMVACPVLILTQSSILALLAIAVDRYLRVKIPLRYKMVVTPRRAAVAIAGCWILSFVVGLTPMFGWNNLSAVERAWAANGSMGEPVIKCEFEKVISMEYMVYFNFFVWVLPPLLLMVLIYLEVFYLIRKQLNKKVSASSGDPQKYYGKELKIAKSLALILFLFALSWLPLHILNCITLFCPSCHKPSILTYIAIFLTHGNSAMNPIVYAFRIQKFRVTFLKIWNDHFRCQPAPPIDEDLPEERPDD
Test: not given
It counts as cell membranes, CHO, Membrane. Particulars: cho.
Take `C=C1C(=O)O[C@@H]2C3O[C@]3(C)CC/C=C(\C)CC[C@@H]12` (stereo not given in full): the IC50 result is reported as “Not Active”.
On to `CCOC(=O)c1ccc(N)cc1` [BENZOCAINE], for which the IC50 result is on record as “Not Active”.
With OXALIPLATIN, the IC50 result is reported as “Not Active” and the Ki result is “Not Active”.
